Results from ChEMBL document CHEMBL1773043, “Platensimycin and platencin congeners from Streptomyces platensis” (J Nat Prod, 2011).
Active and inactive are the calls of the source. No cut-off for these calls is given here.

Tests used:
Enterococcus faecalis = experiment: Antibacterial activity against Enterococcus faecalis at 64 ug/ml after 20 hrs; assay type: functional, organism-based
Haemophilus influenzae = experiment: Antibacterial activity against Haemophilus influenzae at 64 ug/ml after 20 hrs; assay type: functional, organism-based
Escherichia coli = experiment: Antibacterial activity against Escherichia coli at 64 ug/ml after 20 hrs; assay type: functional, organism-based
Enterococcus faecium = experiment: Antibacterial activity against Enterococcus faecium at 64 ug/ml after 20 hrs; assay type: functional, organism-based
[1] = target: T1, 3-oxoacyl-[acyl-carrier-protein] synthase 2 (Staphylococcus aureus, UniProt Q5TKS0); experiment: (§1) Inhibition of Staphylococcus aureus […] assessed as [2-14C]-malonyl CoA incorporation after 90 mins by cell free-based scintillation counting
T1 sequence (Q5TKS0 whole entry): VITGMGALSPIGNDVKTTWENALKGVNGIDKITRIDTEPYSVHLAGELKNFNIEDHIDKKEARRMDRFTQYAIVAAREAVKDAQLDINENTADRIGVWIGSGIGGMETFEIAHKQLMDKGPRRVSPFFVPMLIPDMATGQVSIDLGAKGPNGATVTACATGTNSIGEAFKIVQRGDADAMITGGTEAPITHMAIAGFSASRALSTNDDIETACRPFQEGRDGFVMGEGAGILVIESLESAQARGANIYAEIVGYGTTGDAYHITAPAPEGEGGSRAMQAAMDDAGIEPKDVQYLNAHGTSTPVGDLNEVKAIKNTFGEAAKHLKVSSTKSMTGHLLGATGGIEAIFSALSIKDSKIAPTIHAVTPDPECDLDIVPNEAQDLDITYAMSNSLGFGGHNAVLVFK

Staphylococcus aureus [2] = experiment: Antibacterial activity against Staphylococcus aureus RN450 expressing S1-1941 plasmid carrying antisense FabF2p RNA assessed as 5 mm differential zone clearance measured as minimum concentration after 18 hrs; assay type: functional
Streptococcus pneumoniae = experiment: Antibacterial activity against Streptococcus pneumoniae at 64 ug/ml after 20 hrs; assay type: functional, organism-based
Staphylococcus aureus [3] = experiment: Antibacterial activity against Staphylococcus aureus at 64 ug/ml after 20 hrs; assay type: functional, organism-based
[4] = target: T2, 3-oxoacyl-[acyl-carrier-protein] synthase 2 (Staphylococcus aureus) (UniProt Q5TKS0); experiment: as §1
T2 sequence (whole entry): T1 sequence (Q5TKS0 whole entry)

IC50 [1]	inhibition [4]	SMILES	Activity (Enterococcus faecalis)	Activity (Haemophilus influenzae)	Activity (Escherichia coli)	Activity (Enterococcus faecium)	Activity (Staphylococcus aureus [2])	Activity (Streptococcus pneumoniae)	Activity (Staphylococcus aureus [3])
–	inactive	COC(=O)c1ccc(O)c(NC(=O)CC[C@]2(C)C(=O)C=CC34CC5CC(OC5(CO)C3)C42)c1O (some centres undefined) [PLATENSIMYCIN A4 METHYL ESTER]	inactive	inactive	inactive	inactive	100 µg/mL	inactive	inactive
–	inactive	COC(=O)CC[C@]1(C)C(=O)C=C[C@]23CC4C[C@H](O[C@]4(C)C2)C31 (some centres undefined)	inactive	inactive	inactive	inactive	–	inactive	inactive
–	inactive	C[C@@]12C[C@@]34C=CC(=O)[C@@](C)(CCC(=O)O)C3[C@H](CC1C4)O2 (some centres undefined)	inactive	inactive	inactive	inactive	–	inactive	inactive
–	inactive	CC(=O)NCC[C@H](NC(=O)CC[C@]1(C)C(=O)C=C[C@]23CC4C[C@H](O[C@]4(C)C2)C31)C(=O)O (some centres undefined)	inactive	inactive	inactive	inactive	–	inactive	inactive

The next lines start with the compound.

SMILES	IC50 [1]	inhibition [4]	Activity (Enterococcus faecalis)	Activity (Haemophilus influenzae)	Activity (Escherichia coli)	Activity (Enterococcus faecium)	Activity (Staphylococcus aureus [2])	Activity (Streptococcus pneumoniae)	Activity (Staphylococcus aureus [3])
C[C@]12O[C@H]3CC1C[C@@]1(C=C(O)C(=O)[C@@](C)(CCC(=O)Nc4c(O)ccc(C(=O)O)c4O)C31)C2O (some centres undefined)	33.8 µM	–	inactive	inactive	inactive	inactive	<20 µg/mL	inactive	inactive
C[C@@]1(CCC(=O)Nc2c(O)ccc(C(=O)O)c2O)C(=O)C=CC23CC(CCC21)C(O)(CO)C3 (some centres undefined)	–	inactive	inactive	inactive	inactive	inactive	–	inactive	inactive
COC(=O)c1ccc(O)c(NC(=O)CC[C@]2(C)C(=O)C=CC34CC5(C)OC(C[C@]5(O)C3)C42)c1O (some centres undefined)	–	inactive	inactive	inactive	inactive	inactive	–	inactive	inactive
COC(=O)c1ccc(O)c(NC(=O)CC[C@]2(C)C(=O)C=CC34C[C@@]5(C)O[C@@H](CC5[C@H]3O)C42)c1O (some centres undefined)	–	inactive	inactive	inactive	inactive	inactive	–	inactive	inactive
C=C1C[C@@]23C=CC(=O)[C@@](C)(CCC(=O)OC)C2C[C@@H]1C[C@H]3O (some centres undefined)	–	inactive	inactive	inactive	inactive	inactive	–	inactive	inactive
C=C1CC23C=CC(=O)[C@@](C)(CCC(=O)Nc4c(O)ccc(C(=O)OC)c4O)C2CC1[C@@H](O)C3 (some centres undefined)	–	inactive	inactive	inactive	inactive	inactive	–	inactive	inactive
C[C@@]12C[C@]34CC1C[C@H](O2)C3[C@](C)(CCC(=O)Nc1c(O)ccc(C(=O)O)c1O)C(=O)C[C@H]4O (some centres undefined)	–	inactive	inactive	inactive	inactive	inactive	–	inactive	inactive
